In one experiment the target is T1, α1A-adrenoceptors (Rattus norvegicus, UniProt P43140).
T1 construct: the middle part of the ventral caudal artery was removed; from tissue; host or cells: isolated rat tail (ventral caudal) artery rings
T1 sequence (P43140 1-466): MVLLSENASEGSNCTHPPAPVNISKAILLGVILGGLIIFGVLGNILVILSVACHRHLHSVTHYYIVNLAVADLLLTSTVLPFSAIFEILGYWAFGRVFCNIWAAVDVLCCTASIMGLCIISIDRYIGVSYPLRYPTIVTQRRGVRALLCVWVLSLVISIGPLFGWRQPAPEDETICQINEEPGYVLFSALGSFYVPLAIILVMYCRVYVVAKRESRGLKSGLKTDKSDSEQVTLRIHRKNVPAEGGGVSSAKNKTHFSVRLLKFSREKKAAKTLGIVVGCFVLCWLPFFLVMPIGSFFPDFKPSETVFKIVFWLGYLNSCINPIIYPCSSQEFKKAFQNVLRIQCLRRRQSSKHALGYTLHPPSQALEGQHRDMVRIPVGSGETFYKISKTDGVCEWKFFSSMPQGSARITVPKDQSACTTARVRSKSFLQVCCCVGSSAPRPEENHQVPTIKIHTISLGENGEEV
Put plainly: Functional bioassay, isolated rat tail artery, noradrenaline contraction. Format: biochemical. The following applies: noradrenaline as agonist; for Kb: read-out: pA2 ± S.E.M., α1A (converted). As to the method: (§1) The isolated artery, cut into ~4 mm long rings, was then horizontally put up between two stainless steel hooks (diameter 0.15 mm). One hook was fastened to the bottom of the chamber and the other to an isometric FDT10-A force displacement transducer (DMT Model 750TOBS, Denmark), linked with Powerlab 4/26 analyzer (ADInstruments), and processed by LabChart 7 software. […] The initial optimal tissues tension was set at 0.75 g. Chloroethylclonidine (3 μM) as the preferential α1B-adrenoreceptor alkylating agent was used during incubation and after 30 min it was completely washed off. Through 100 min of equilibration tissues were stimulated with noradrenaline (1 μM) four times with washing out until the contractile response become constant. Two cumulative concentration-response curves to noradrenaline, at an interval of 60 min, were established on each arterial ring both in the presence and absence of antagonist. The incubation with antagonists went on for 30 min. The experiments were carried out in the constant presence of yohimbine (0.1 μM) and propranolol (1 μM) to block α2- and β-adrenoceptors, respectively in order to minimize the involvement of these adrenoceptors in the response to noradrenaline.
Data are means ± S.E.M. of at least 4 separate experiments. To establish Hill slopes for the agonist concentration–response curves and calculate EC50 values, curves were fitted to all the data by non-linear regression. The EC50 value in the presence and absence of antagonists was used to ascertain the concentration ratio (CR). Schild analysis was performed.

Experiment [1] relates to α1-adrenergic receptor subtypes. The experiment is described as follows: Comparison of functional affinities across α1-adrenoceptor subtypes (rat tail artery, mouse spleen, rat aorta). Format: biochemical. The note with it: from difference in pA2 values. As to the method: as §1
The influence on α1B-adrenoceptors was evaluated using the isolated mouse spleen. The spleen was removed from male mice right after killing the anesthetized animal by cervical dislocation. […]

In another experiment the target is α1-adrenoceptor. The note with it: rat cerebral cortex, [3H]-prazosin; ref Pytka et al. (2015); read-out: Adrenergic receptors Ki α1; cited from earlier work.

SMILES strings stand for the structures. Where a name gives a salt, the structure may show the parent alone.

With `COc1ccccc1N1CCN(CCCOc2c(C)cc(C)cc2C)CC1` [HBK-18, 1N-[3-(2,4,6-trimethylphenoxy)propyl]-4N-(2-methoxyphenyl)piperazine hydrochloride], at α1A-adrenoceptors, the “Schild slope ± S.E.M., α1A” value is on record as 1.10 ± 0.06 and the Kb was 3.24 nM.
For `COc1ccccc1N1CCN(CCCOc2cc(C)ccc2Cl)CC1` [HBK-16, 1N-[3-(2-chloro-5-methylphenoxy)propyl]-4N-(2-methoxyphenyl)piperazine hydrochloride], at α1A-adrenoceptors, the “Schild slope ± S.E.M., α1A” value is on record as 1.06 ± 0.08 and the Kb was 1.78 nM.
With `COc1ccccc1N1CCN(CCCOc2cc(C)cc(C)c2C)CC1` [HBK-19, 1N-[3-(2,3,5-trimethylphenoxy)propyl]-4N-(2-methoxyphenyl)piperazine hydrochloride], at α1A-adrenoceptors, the “Schild slope ± S.E.M., α1A” value stood at 0.96 ± 0.05 and the Kb is 1.23 nM. Also, in experiment [1], the “α1A-adrenoceptor blockade relative to α1B subtype (fold stronger)” value is listed as “around seven-fold”.
Consider `COc1ccccc1N1CCN(CCOCCOc2c(C)cccc2Cl)CC1.Cl` [HBK-15, 1-[(2-chloro-6-methylphenoxy)ethoxyethyl]-4-(2-methoxyphenyl)piperazine hydrochloride], for which, on α1A-adrenoceptors, the “Schild slope ± S.E.M., α1A” value is reported as 1.01 ± 0.18 and the Kb is 19.5 nM. Also, the Ki (in general, a measure of affinity in units of concentration, obtained from inhibition or displacement) on α1-adrenoceptor is 13.1 nM.
As to `COc1ccccc1N1CCN(CCOCCOc2c(C)cccc2C)CC1.Cl` [HBK-14, 1-[(2,6-dimethylphenoxy)ethoxyethyl]-4-(2-methoxyphenyl)piperazine hydrochloride], at α1A-adrenoceptors, the “Schild slope ± S.E.M., α1A” value came to 0.97 ± 0.15 and the Kb was 10.2 nM. Besides, the Ki on α1-adrenoceptor was 22.8 nM.

The values above are taken from article PMC4971072, “Chemically Homogenous Compounds with Antagonistic Properties at All α1-Adrenoceptor Subtypes but not β1-Adrenoceptor Attenuate Adrenaline-Induced Arrhythmia in Rats” (Frontiers in Pharmacology, 2016).
